Test results: patent publication US9518061B2, “Substituted pyrazolylpyrazole derivative and use of same as herbicide” (KYOYU AGRI CO., LTD., priority 2013, dated 2016)

Experiments:
Format in all cases: in vivo
[1] = system: Chenopodium album; assay: Farming soil treatment test; settings: soil surface spray prior to weed growth, 30 days
Experimental: (§1) 2. Farming Soil Treatment Test
(§2) Field soil was filled into a 1/6000 are pot followed by seeding with Digitaria ciliaris, Chenopodium album and Amaranthus retroflexus and covering with soil.
(§3) Wettable powder of compounds of formula (D shown in Table 1 prepared in compliance with the preparation examples were diluted with water to the prescribed amount of chemical and uniformly sprayed onto each soil surface layer using 10 liters of sprayed water per are prior to weed growth following seeding.
(§4) After treating for 30 days in a glass greenhouse at an average atmospheric temperature of 30° C., the herbicidal efficacy thereof was investigated.
(§5) Evaluation of herbicidal efficacy was carried out in the same manner as the above-mentioned Test Example 1.

[2] = system: Amaranthus retroflexus; assay: Farming soil treatment test; settings: soil surface spray prior to weed growth, 30 days
Experimental: as §1, §2, §3, §4, §5

[3] = system: Digitaria ciliaris; assay: Farming soil treatment test; settings: soil surface spray prior to weed growth, 30 days
Experimental: as §1, §2, §3, §4, §5

[4] = system: Rice plants; assay: Paddy herbicidal activity test, phytotoxicity to transplanted rice; settings: rice transplanted in 2.0 leaf stage, 30 days
Experimental: (§6) 1. Paddy Herbicidal Activity Test
(§7) Rice paddy soil was filled into a 1/10000 are pot followed by the addition of suitable amounts of water and chemical fertilizer, kneading, seeding with Echinochloa crus-galli, Monochoria vaginalis and Scirpus juncoides and maintaining in an irrigated state at a water depth of 3 cm.
(§8) Wettable powder of Target Compound (I) shown in Table 1 prepared in compliance with the preparation examples were diluted with a suitable amount of water, rice plants in the 2.0 leaf stage were transplanted during 3.5 leaf stage of Echinochloa crus-galli, and treated by dropping in chemical in the prescribed amount per are using a pipette.
as §4
(§9) Evaluation of herbicidal efficacy was carried out by comparing growth inhibition rate (%) with an untreated group, while evaluation of phytotoxicity was carried out by comparing growth inhibition rate (%) with the state of a complete eradication group, and were evaluated at 11 levels indicated below.

[5] = system: Echinochloa crus-galli; assay: Paddy herbicidal activity test; settings: irrigated paddy pot, treated at 3.5 leaf stage of Echinochloa crus-galli, 30 days
Experimental: as §6, §7, §8, §4, §9

[6] = system: Scirpus juncoides; assay: Paddy herbicidal activity test; settings: irrigated paddy pot, 30 days
Experimental: as §6, §7, §8, §4, §9

[7] = system: Monochoria vaginalis; assay: Paddy herbicidal activity test; settings: irrigated paddy pot, 30 days
Experimental: as §6, §7, §8, §4, §9

[8] = system: Chenopodium album; assay: Weed foliar treatment test; settings: foliar spray, 3 weeks
Experimental: (§10) 3. Weed Foliar Treatment Test
(§11) Soil was filled into a 1/6000 are pot followed by seeding with Digitaria ciliaris, Chenopodium album and Amaranthus retroflexus, covering with soil, and cultivating in a glass greenhouse at an average atmospheric temperature of 25° C.
(§12) Wettable powder of Target Compound (I) shown in Table 1 prepared in compliance with the preparation examples were diluted with water to the prescribed amount of chemical and uniformly sprayed onto the weeds using 15 liters of sprayed water per are when Digitaria ciliaris had grown to the 1.0 to 2.0 leaf stage.
(§13) After treating for 3 weeks in a glass greenhouse at an average atmospheric temperature of 25° C., the herbicidal efficacy thereof was investigated.
as §5

[9] = system: Amaranthus retroflexus; assay: Weed foliar treatment test; settings: foliar spray, 3 weeks
Experimental: as §10, §11, §12, §13, §5

[10] = system: Digitaria ciliaris; assay: Weed foliar treatment test; settings: foliar spray at 1.0 to 2.0 leaf stage of Digitaria ciliaris, 3 weeks
Experimental: as §10, §11, §12, §13, §5

Row | Structure (SMILES) | herbicidal efficacy (growth inhibition rate level) Chenopodium album ([1]; 5g a.i./10a) | herbicidal efficacy (growth inhibition rate level) Chenopodium album ([1]; 10g a.i./10a) | herbicidal efficacy (growth inhibition rate level) Amaranthus retroflexus ([2]; 5g a.i./10a) | herbicidal efficacy (growth inhibition rate level) Amaranthus retroflexus ([2]; 10g a.i./10a) | herbicidal efficacy (growth inhibition rate level) Digitaria ciliaris ([3]; 5g a.i./10a) | herbicidal efficacy (growth inhibition rate level) Digitaria ciliaris ([3]; 10g a.i./10a) | phytotoxicity (growth inhibition rate level) Rice plants ([4]; 1g a.i./10a) | phytotoxicity (growth inhibition rate level) Rice plants ([4]; 5g a.i./10a) | herbicidal efficacy (growth inhibition rate level) Echinochloa crus-galli ([5]; 1g a.i./10a) | herbicidal efficacy (growth inhibition rate level) Echinochloa crus-galli ([5]; 5g a.i./10a) | herbicidal efficacy (growth inhibition rate level) Scirpus juncoides ([6]; 1g a.i./10a) | herbicidal efficacy (growth inhibition rate level) Scirpus juncoides ([6]; 5g a.i./10a) | herbicidal efficacy (growth inhibition rate level) Monochoria vaginalis ([7]; 1g a.i./10a) | herbicidal efficacy (growth inhibition rate level) Monochoria vaginalis ([7]; 5g a.i./10a) | herbicidal efficacy (growth inhibition rate level) Chenopodium album ([8]; 5g a.i./10a) | herbicidal efficacy (growth inhibition rate level) Chenopodium album ([8]; 10g a.i./10a) | herbicidal efficacy (growth inhibition rate level) Amaranthus retroflexus ([9]; 5g a.i./10a) | herbicidal efficacy (growth inhibition rate level) Amaranthus retroflexus ([9]; 10g a.i./10a) | herbicidal efficacy (growth inhibition rate level) Digitaria ciliaris ([10]; 5g a.i./10a) | herbicidal efficacy (growth inhibition rate level) Digitaria ciliaris ([10]; 10g a.i./10a)
1 | N#Cc1cnn(-c2nn3c(c2Br)CCCC3)c1N(CCCl)C(=O)C(F)(F)F [Compound 16] | 10 (100%) | 10 (100%) | 10 (100%) | 10 (100%) | 10 (100%) | 10 (100%) | 0 (0 (exponent): 0% to less than 10% (growth inhibition rate)) | 1 (10% to less than 20%) | 9 (90% to less than 100%) | 10 (100%) | 8 (80% to less than 90%) | 9 (90% to less than 100%) | 7 (70% to less than 80%) | 8 (80% to less than 90%) | 10 (100%) | 10 (100%) | 10 (100%) | 10 (100%) | 10 (100%) | 10 (100%)
2 | COCCN(C(=O)C(F)(F)F)c1c([N+](=O)[O-])cnn1-c1nn2c(c1Cl)CCCC2 [Compound 20] | 10 (100%) | 10 (100%) | 10 (100%) | 10 (100%) | 10 (100%) | 10 (100%) | 1 (10% to less than 20%) | 1 (10% to less than 20%) | 9 (90% to less than 100%) | 10 (100%) | 9 (90% to less than 100%) | 10 (100%) | 9 (90% to less than 100%) | 9 (90% to less than 100%) | 10 (100%) | 10 (100%) | 10 (100%) | 10 (100%) | 10 (100%) | 10 (100%)
3 | COCCNc1c(C#N)cnn1-c1nn2c(c1Cl)CCCC2 [Control agent 4.63] | 4 (40% to less than 50%) | 5 (50% to less than 60%) | 4 (40% to less than 50%) | 5 (50% to less than 60%) | 3 (30% to less than 40%) | 3 (30% to less than 40%) | 0 (0 (exponent): 0% to less than 10% (growth inhibition rate)) | 1 (10% to less than 20%) | 2 (20% to less than 30%) | 3 (30% to less than 40%) | 1 (10% to less than 20%) | 2 (20% to less than 30%) | 1 (10% to less than 20%) | 2 (20% to less than 30%) | 3 (30% to less than 40%) | 5 (50% to less than 60%) | 3 (30% to less than 40%) | 6 (60% to less than 70%) | 2 (20% to less than 30%) | 4 (40% to less than 50%)
4 | N#Cc1cnn(-c2nn3c(c2Cl)CCCC3)c1NCCCl [Control agent 4.92] | 4 (40% to less than 50%) | 5 (50% to less than 60%) | 3 (30% to less than 40%) | 4 (40% to less than 50%) | 2 (20% to less than 30%) | 3 (30% to less than 40%) | 0 (0 (exponent): 0% to less than 10% (growth inhibition rate)) | 1 (10% to less than 20%) | 1 (10% to less than 20%) | 2 (20% to less than 30%) | 2 (20% to less than 30%) | 4 (40% to less than 50%) | 0 (0 (exponent): 0% to less than 10% (growth inhibition rate)) | 1 (10% to less than 20%) | 3 (30% to less than 40%) | 6 (60% to less than 70%) | 4 (40% to less than 50%) | 5 (50% to less than 60%) | 4 (40% to less than 50%) | 5 (50% to less than 60%)
5 | N#Cc1cnn(-c2nn3c(c2Cl)CCCC3)c1NC(=O)C(F)(F)F [Control agent 4.185] | 4 (40% to less than 50%) | 5 (50% to less than 60%) | 5 (50% to less than 60%) | 6 (60% to less than 70%) | 3 (30% to less than 40%) | 5 (50% to less than 60%) | 2 (20% to less than 30%) | 2 (20% to less than 30%) | 2 (20% to less than 30%) | 4 (40% to less than 50%) | 5 (50% to less than 60%) | 6 (60% to less than 70%) | 0 (0 (exponent): 0% to less than 10% (growth inhibition rate)) | 0 (0 (exponent): 0% to less than 10% (growth inhibition rate)) | 5 (50% to less than 60%) | 6 (60% to less than 70%) | 6 (60% to less than 70%) | 6 (60% to less than 70%) | 4 (40% to less than 50%) | 6 (60% to less than 70%)
